{"source": "patent US7084239B1", "about": "“Cancer peptides of NY-ESO-1/CAG-3” (The United States of America as represented by the …, priority 1997, dated 2006)", "type_in_all_cases": "cell-based, human", "key": {"CTL clone 5": {"system": "CTL clone 5", "assay": "GM-CSF release by CTL clone 5 on peptide-pulsed EBV B cells", "procedure": "(§1) DNA transfection and GM-CSF assay were done as previously described (Wang, R. F., P. F. Robbins, Y. Kawakami, X. Q. Kang, and S. A. Rosenberg, 1995, J. Exp. Med. 181:799–804). Briefly, […] of DNA carrying a different fragment and 50 ng of the HLA-A31 DNA were mixed with 2 μl of lipofectamine in 100 μl of serum-free DMEM for 15–45 min. The DNA/lipofectamine mixture was then added to the COS-7 (5×10^4) cells and incubated overnight. The following day, cells were washed twice with DMEM medium. TIL586, CTL clone 5 or CTL clone 10 were added at a concentration of 5×10^4 cells/well in AIM-V medium containing 120 IU/ml of IL-2. After 18–24 h incubation, 100 μl of supernatant was collected and GM-CSF was measured in a standard ELISA assay (R+D Systems, Minneapolis, Minn.). For peptides, 586EBV, 1510EBV and T2 cells were incubated with peptides at 37° C. for 90 min, and then washed three times with AIM-V medium containing 120 IU/ml of IL-2. T cells were added and incubated for additional 18–24 h, 100 μl of supernatant was collected for GM-CSF assay. In some experiments, IFN-γ release assays were done using a standard ELISA kit (Endogen, Woburn, Mass.).\nThese peptides were pulsed onto HLA-A31-positive 1510EBV B cells and tested for their ability to stimulate cytokine release by CTL clone 5. […] CTL clone 10 recognized the same peptide as CTL clone 5 (data not shown). […] The reactivity of CTL clone 5 was undetectable when either the ESO9-54 or the ESO10-127 peptides were used at concentrations below 100 nM to sensitize EBV cells."}, "CTL clone 2 [1]": {"system": "CTL clone 2", "assay": "Chromium release cytolysis of peptide-pulsed target cells by CTL clone 2", "conditions": "peptide titration, 4-h chromium release, E:T ratio of 20:1 (FIG. 7B)", "excerpt": "FIGS. 7A–7C. An alternative open reading frame of the NY-ESO-1 gene and antigenic peptides recognized by CTL. FIG. 7A. Identification of antigenic peptides from the ORF2. Thirty peptides were synthesized based on all potential ORFs and screened. Representative data are shown here. Seven peptides derived from ORF2 (see FIG. 3A) were pulsed on HLA-A31 positive 1510EBV B cells and tested for T cell recognition based on GM-CSF release ([…], SEQ ID NO: 123; […], SEQ ID NO: 124; […], SEQ ID NO: 125; […], SEQ ID NO: 46; […], SEQ ID NO: 47; […], SEQ ID NO: 126; and […], SEQ ID NO: 127). 1510 EBV alone was used as a negative control. FIG. 7B. 1510EBV B cells were labeled with chromium for 2 h. The ESORF2-10-18 peptide was then pulsed on the chromium-labeled […] (solid square) and HLA-A31-negative 1102EBV (open circle) at different concentrations. 1510EBV pulsed with ESO10-53, which was recognized by CTL clone 5, was used for the specificity control (solid triangle). After peptide incubation and three washes, cytolysis of target cells by CTL-clone 2 was determined in a 4-h chromium release assay at an E:T ratio of 20:1. FIG. 7C. Several tumor lines and fresh breast tumors were tested for recognition by CTL clone 2 to determine whether the ORF2 is translated in different tumors. 1510EBV B cells pulsed with […] (SEQ ID NO: 25) (ESO10-53), […] (SEQ ID NO: 47) (ORF2-10-18), or alone were included to evaluate the reactivity and specificity of CTL clone 2 and 5. […]\nCytolytic assay was done as previously described (Kawakami, Y et al., 1994, Proc. Natl. Acad. Sci. USA 91:6458–62). […] The cells were washed again, counted, and then mixed with TIL586 or CTL clone 5 at the indicated ratio of effector: targets (E:T). Chromium release was measured after 4 h incubation. […] Percentage of specific lysis was determined from the equation (A−B)/(C−B)×100 where A is lysis of 586EBV B cells by TIL586 or clone 5 in the presence of a peptide, B is spontaneous release from 586EBV B cells in presence of the same peptide but in the absence of effector cells, and C is the maximum chromium release. […]"}, "CTL clone 2 [2]": {"system": "CTL clone 2", "assay": "T cell recognition (GM-CSF release) of peptide-pulsed EBV B cells by CTL clone 2", "conditions": "peptide pulsed onto 1510EBV or 586EBV B cells", "excerpt": "FIGS. 7A–7C. An alternative open reading frame of the NY-ESO-1 gene and antigenic peptides recognized by CTL. FIG. 7A. Identification of antigenic peptides from the ORF2. Thirty peptides were synthesized based on all potential ORFs and screened. Representative data are shown here. Seven peptides derived from ORF2 (see FIG. 3A) were pulsed on HLA-A31 positive 1510EBV B cells and tested for T cell recognition based on GM-CSF release ([…], SEQ ID NO: 123; […], SEQ ID NO: 124; […], SEQ ID NO: 125; […], SEQ ID NO: 46; […], SEQ ID NO: 47; […], SEQ ID NO: 126; and […], SEQ ID NO: 127). 1510 EBV alone was used as a negative control. FIG. 7B. 1510EBV B cells were labeled with chromium for 2 h. The ESORF2-10-18 peptide was then pulsed on the chromium-labeled […] (solid square) and HLA-A31-negative 1102EBV (open circle) at different concentrations. 1510EBV pulsed with ESO10-53, which was recognized by CTL clone 5, was used for the specificity control (solid triangle). After peptide incubation and three washes, cytolysis of target cells by CTL-clone 2 was determined in a 4-h chromium release assay at an E:T ratio of 20:1. FIG. 7C. Several tumor lines and fresh breast tumors were tested for recognition by CTL clone 2 to determine whether the ORF2 is translated in different tumors. 1510EBV B cells pulsed with […] (SEQ ID NO: 25) (ESO10-53), […] (SEQ ID NO: 47) (ORF2-10-18), or alone were included to evaluate the reactivity and specificity of CTL clone 2 and 5. Expression of HLA-A31 on the tumor cells is indicated.\nas §1, with “For peptides, 586EBV, 1510EBV and T2 cells were incubated with peptides at 37° C. for 90 min, and then washed three times with AIM-V medium containing 120 IU/ml of IL-2. T cells were added and incubated for additional 18–24 h, 100 μl of supernatant was collected for GM-CSF assay. In some experiments, IFN-γ release assays were done using a standard ELISA kit (Endogen, Woburn, Mass.).” left out\nCTL clone 5 and TIL1244 were used for the specificity controls. […] To test the hypothesis that CTL may recognize a peptide from a gene product translated from an alternative open reading frame of the same gene, synthetic peptides were made with HLA-A31 Binding motif on the basis of amino acid sequence predicted from the second open reading frames (ORF2) (FIG. 3A). […]"}}, "note": "“Also recorded” adds a separate entry of the source."}
{"sequence": "ASGPGGGAPR (listed as Homo sapiens) [ESO10-53]", "values": [{"measurement": "GM-CSF release by CTL clone 5, EXPT. 2 (586EBV)", "setting": "CTL clone 5; 586EBV cells, peptide 0.1 μg/ml for 90 min, 5 × 10^4 CTL clone 5", "value": "1044 (SEQ. ID NO: 25)"}, {"measurement": "CTL clone 5 GM-CSF release", "setting": "CTL clone 5; 1510EBV cells incubated with peptide at 0.1 μg/ml for 90 min", "value": ">2000 (SEQ. ID NO: 25) pg/ml"}, {"measurement": "GM-CSF release by CTL clone 5, EXPT. 1 (1510EBV)", "setting": "CTL clone 5; 1510EBV cells, peptide 0.1 μg/ml for 90 min, 5 × 10^4 CTL clone 5", "value": 1097}, {"measurement": "Plateau of GM-CSF release from CTL clone 5 in peptide titration", "setting": "CTL clone 5; at 10 μM peptide concentration (FIG. 5A)", "value": "no plateau was reached"}, {"measurement": "Recognition by CTL clone 5 (cytokine release), in words", "setting": "CTL clone 5; peptide pulsed onto HLA-A31-positive 1510EBV or 586EBV B cells", "value": "strongly recognized; also recorded: recognized"}, {"measurement": "Peptide concentration at which CTL clone 5 reactivity is detectable", "setting": "CTL clone 5; peptide titration on EBV B cells, GM-CSF release", "value": "≤ 10", "unit": "nM"}, {"measurement": "Lysis of peptide-pulsed 1510EBV by CTL clone 2", "setting": "CTL clone 2 [1]", "value": "failed to lyse"}, {"measurement": "Recognition by CTL clone 2, in words", "setting": "CTL clone 2 [2]", "value": "did not recognize"}, {"measurement": "Recognition by CTL clone 2, in words", "setting": "CTL clone 2 [2]; listed as ESO 10-53", "value": "failed to recognize"}]}
